Measured values: ChEMBL document CHEMBL1201862, “PubChem BioAssay data set” (2004)
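Cells were grown in 96-well plates and exposed to each compound for 48 hours at five concentrations; endpoints were interpolated linearly between bracketing concentrations, or set to the highest concentration if not reached. GI50 is the concentration that inhibits growth by half.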 The source made the active and inactive calls. Rule as the data show it: active = GI50 up to about 1.1 µM and inactive = higher.

How the values were obtained:
Assay in all cases: growth of human tumour cells (NCI), 48 h
[1] = test system: UO-31
[2] = test system: MCF7
[3] = test system: KM12
[4] = test system: SN12C
[5] = test system: HCT-116
[6] = test system: MOLT-4
[7] = test system: RXF 393
[8] = test system: T47D
[9] = test system: HOP-92
[10] = test system: COLO 205
[11] = test system: MDA-MB-435
[12] = test system: EKVX
[13] = test system: CAKI-1
[14] = test system: MDA-MB-231
[15] = test system: ACHN
[16] = test system: SW-620
[17] = test system: OVCAR-3
[18] = test system: OVCAR-8
[19] = test system: MDA-N
[20] = test system: NCI-H226
[21] = test system: SF-268
[22] = test system: UACC-62
[23] = test system: SK-MEL-5
[24] = test system: HOP-62
[25] = test system: SK-OV-3
[26] = test system: M14
[27] = test system: SNB-19
[28] = test system: K562
[29] = test system: BT-549
[30] = test system: HCT-15
[31] = test system: SR
[32] = test system: SK-MEL-28
[33] = test system: UACC-257
[34] = test system: Hs-578T
[35] = test system: A498
[36] = test system: HT-29
[37] = test system: OVCAR-5
[38] = test system: 786-0
[39] = test system: NCI-H522
[40] = test system: NCI-H460
[41] = test system: NCI-H23
[42] = test system: U-251
[43] = test system: SK-MEL-2
[44] = test system: NCI/ADR-RES
[45] = test system: HCC 2998
[46] = test system: LOX IMVI
[47] = test system: DU-145
[48] = test system: RPMI-8226
[49] = test system: HL-60
[50] = test system: PC-3
[51] = test system: OVCAR-4
[52] = test system: SF-295
[53] = test system: SF-539
[54] = test system: IGROV-1
[55] = test system: A549
[56] = test system: Malme-3M
[57] = test system: TK-10
[58] = test system: SNB-75
[59] = test system: CCRF-CEM

What does the source list for `O=C(NCc1cccnc1)C(=O)NCc1cccnc1`?
GI50 [1]: > 100 µM (inactive); GI50 [2]: > 100 µM (inactive); GI50 [3]: > 100 µM (inactive); GI50 [4]: > 100 µM (inactive); GI50 [5]: > 100 µM (inactive); GI50 [6]: 0.149 µM (active); GI50 [7]: > 100 µM (inactive); GI50 [8]: > 100 µM (inactive); GI50 [9]: > 100 µM (inactive); GI50 [10]: > 100 µM (inactive); GI50 [11]: > 100 µM (inactive); GI50 [12]: > 100 µM (inactive); GI50 [13]: > 100 µM (inactive); GI50 [14]: > 100 µM (inactive); GI50 [15]: > 100 µM (inactive); GI50 [16]: > 100 µM (inactive); GI50 [17]: > 100 µM (inactive); GI50 [18]: > 100 µM (inactive); GI50 [19]: > 100 µM (inactive); GI50 [20]: > 100 µM (inactive); GI50 [21]: > 100 µM (inactive); GI50 [22]: > 100 µM (inactive); GI50 [23]: > 100 µM (inactive); GI50 [24]: > 100 µM (inactive); GI50 [25]: > 100 µM (inactive); GI50 [26]: > 100 µM (inactive); GI50 [27]: > 100 µM (inactive); GI50 [28]: > 100 µM (inactive); GI50 [29]: > 100 µM (inactive); GI50 [30]: > 100 µM; GI50 [31]: 81.1 µM (inactive); GI50 [32]: > 100 µM (inactive); GI50 [33]: > 100 µM (inactive); GI50 [34]: > 100 µM (inactive); GI50 [35]: > 100 µM (inactive); GI50 [36]: > 100 µM (inactive); GI50 [37]: > 100 µM (inactive); GI50 [38]: > 100 µM (inactive); GI50 [39]: > 100 µM (inactive); GI50 [40]: > 100 µM (inactive); GI50 [41]: > 100 µM (inactive); GI50 [42]: > 100 µM (inactive); GI50 [43]: > 100 µM (inactive); GI50 [44]: > 100 µM (inactive); GI50 [45]: > 100 µM (inactive); GI50 [46]: > 100 µM (inactive); GI50 [47]: > 100 µM (inactive); GI50 [48]: > 100 µM (inactive); GI50 [49]: 27.4 µM (inactive); GI50 [50]: > 100 µM (inactive); GI50 [51]: > 100 µM (inactive); GI50 [52]: > 100 µM (inactive); GI50 [53]: > 100 µM (inactive); GI50 [54]: > 100 µM (inactive); GI50 [55]: > 100 µM (inactive); GI50 [56]: > 100 µM (inactive); GI50 [57]: > 100 µM (inactive); GI50 [58]: > 100 µM (inactive)

What does the source list for `C=C1CC[C@@]2(OC1)OC1C[C@H]3[C@@H]4CC=C5C[C@@H](O)CC(OC6OCC(OC(=O)[C@@H](O)[C@@H](C)CC)C(OC(C)=O)C6OC6OC(C)C(O)C(O)C6O)[C@]5(C)[C@H]4CC[C@]3(C)C1[C@@H]2C` (some centres undefined)?
GI50 [1]: 2.4 µM (inactive); GI50 [2]: 1.84 µM (inactive); GI50 [3]: 2.14 µM (inactive); GI50 [4]: 2.25 µM (inactive); GI50 [5]: 1.65 µM (inactive); GI50 [6]: 1.7 µM (inactive); GI50 [7]: 1.93 µM (inactive); GI50 [8]: 4.78 µM (inactive); GI50 [9]: 3.3 µM (inactive); GI50 [10]: 2.11 µM (inactive); GI50 [11]: 1.76 µM (inactive); GI50 [12]: 2.34 µM (inactive); GI50 [13]: 2.65 µM (inactive); GI50 [14]: 1.75 µM (inactive); GI50 [15]: 2.28 µM (inactive); GI50 [16]: 2.1 µM (inactive); GI50 [17]: 1.85 µM (inactive); GI50 [18]: 2.16 µM (inactive); GI50 [19]: 1.92 µM (inactive); GI50 [20]: 2.64 µM (inactive); GI50 [21]: 2.06 µM (inactive); GI50 [22]: 1.77 µM (inactive); GI50 [23]: 1.97 µM (inactive); GI50 [25]: 1.83 µM (inactive); GI50 [26]: 2.11 µM (inactive); GI50 [27]: 1.96 µM (inactive); GI50 [28]: 2.01 µM (inactive); GI50 [29]: 3.76 µM (inactive); GI50 [30]: 1.91 µM; GI50 [31]: 2.07 µM (inactive); GI50 [32]: 2.2 µM (inactive); GI50 [33]: 2.21 µM (inactive); GI50 [34]: 3.4 µM (inactive); GI50 [35]: 1.81 µM (inactive); GI50 [36]: 2.82 µM (inactive); GI50 [37]: 2.04 µM (inactive); GI50 [38]: 1.82 µM (inactive); GI50 [39]: 1.76 µM (inactive); GI50 [40]: 1.72 µM (inactive); GI50 [41]: 2.44 µM (inactive); GI50 [42]: 1.75 µM (inactive); GI50 [43]: 1.57 µM (inactive); GI50 [44]: 2.32 µM (inactive); GI50 [45]: 1.6 µM (inactive); GI50 [46]: 1.87 µM (inactive); GI50 [47]: 2.07 µM (inactive); GI50 [48]: 2.09 µM (inactive); GI50 [49]: 1.81 µM (inactive); GI50 [50]: 1.67 µM (inactive); GI50 [51]: 2.81 µM (inactive); GI50 [52]: 1.75 µM (inactive); GI50 [53]: 2.31 µM (inactive); GI50 [54]: 2.56 µM (inactive); GI50 [55]: 2.21 µM (inactive); GI50 [56]: 3.84 µM (inactive); GI50 [59]: 1.53 µM (inactive); GI50 [57]: 1.88 µM (inactive); GI50 [58]: 2 µM (inactive)

Which GI50 [1] does the source give for `NC1CCCCC1NCCNC1CCCCC1N` (centres undefined) here?
The GI50 was > 100 µM (inactive).

What about the GI50 [2] of the same compound?
The GI50 was 45.9 µM (inactive).

And the GI50 [3]?
Its GI50 is > 100 µM (inactive).

What about the GI50 [4] of the same compound?
The GI50 was > 100 µM (inactive).

What about the GI50 [5] of the same compound?
The GI50 was 47.5 µM (inactive).

What about the GI50 [6] of the same compound?
Its GI50 is 36.1 µM (inactive).

And the GI50 [7]?
The GI50 was > 100 µM (inactive).

What about the GI50 [8] of the same compound?
Its GI50 is > 100 µM (inactive).

And the GI50 [9]?
Its GI50 is 41.5 µM (inactive).

What about the GI50 [10] of the same compound?
The GI50 was 15.9 µM (inactive).

What about the GI50 [11] of the same compound?
Its GI50 is > 100 µM (inactive).

And the GI50 [12]?
Its GI50 is > 100 µM (inactive).

And the GI50 [13]?
Its GI50 is 82.4 µM (inactive).

And the GI50 [14]?
Its GI50 is > 100 µM (inactive).

And the GI50 [15]?
Its GI50 is > 100 µM (inactive).

And the GI50 [16]?
The GI50 was 41.6 µM (inactive).

And the GI50 [17]?
Its GI50 is > 100 µM (inactive).

And the GI50 [18]?
Its GI50 is > 100 µM (inactive).

And the GI50 [19]?
The GI50 was > 100 µM (inactive).

What about the GI50 [20] of the same compound?
Its GI50 is > 100 µM (inactive).

What about the GI50 [21] of the same compound?
The GI50 was > 100 µM (inactive).

What about the GI50 [22] of the same compound?
Its GI50 is > 100 µM (inactive).

And the GI50 [23]?
Its GI50 is > 100 µM (inactive).

What about the GI50 [24] of the same compound?
The GI50 was 53.7 µM (inactive).

And the GI50 [25]?
Its GI50 is > 100 µM (inactive).

And the GI50 [26]?
Its GI50 is > 100 µM (inactive).

What about the GI50 [27] of the same compound?
The GI50 was > 100 µM (inactive).

And the GI50 [28]?
Its GI50 is 49.2 µM (inactive).

And the GI50 [29]?
The GI50 was > 100 µM (inactive).

What about the GI50 [30] of the same compound?
The GI50 was greater than 100 µM.

And the GI50 [31]?
Its GI50 is > 100 µM (inactive).

And the GI50 [32]?
The GI50 was > 100 µM (inactive).

And the GI50 [33]?
The GI50 was > 100 µM (inactive).

What about the GI50 [34] of the same compound?
The GI50 was 44.7 µM (inactive).

And the GI50 [35]?
The GI50 was > 100 µM (inactive).

And the GI50 [36]?
Its GI50 is 17.7 µM (inactive).

What about the GI50 [37] of the same compound?
The GI50 was 20.9 µM (inactive).

What about the GI50 [38] of the same compound?
The GI50 was > 100 µM (inactive).

And the GI50 [39]?
Its GI50 is > 100 µM (inactive).

And the GI50 [40]?
Its GI50 is > 100 µM (inactive).

And the GI50 [41]?
Its GI50 is 29.9 µM (inactive).

What about the GI50 [42] of the same compound?
The GI50 was 30.5 µM (inactive).

And the GI50 [43]?
Its GI50 is > 100 µM (inactive).

What about the GI50 [44] of the same compound?
The GI50 was > 100 µM (inactive).

What about the GI50 [45] of the same compound?
Its GI50 is 32.8 µM (inactive).

What about the GI50 [46] of the same compound?
Its GI50 is 86.5 µM (inactive).

And the GI50 [47]?
The GI50 was > 100 µM (inactive).

What about the GI50 [48] of the same compound?
Its GI50 is > 100 µM (inactive).

What about the GI50 [49] of the same compound?
Its GI50 is > 100 µM (inactive).

What about the GI50 [50] of the same compound?
Its GI50 is > 100 µM (inactive).

And the GI50 [51]?
The GI50 was 47.2 µM (inactive).

What about the GI50 [52] of the same compound?
Its GI50 is > 100 µM (inactive).

And the GI50 [53]?
Its GI50 is > 100 µM (inactive).

What about the GI50 [54] of the same compound?
Its GI50 is 75.7 µM (inactive).

And the GI50 [55]?
Its GI50 is 28.8 µM (inactive).

What about the GI50 [56] of the same compound?
The GI50 was > 100 µM (inactive).

What about the GI50 [59] of the same compound?
The GI50 was 36.4 µM (inactive).

And the GI50 [57]?
The GI50 was > 100 µM (inactive).
